Assay results published in PubChem BioAssay (NCI).
Values joined by “and” are separate entries in the source; they are usually repeats but may differ in a detail not shown here. Equal values may be shown once.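 All cell lines were grown in 96-well plates and treated with compound for 48 hours. Abbreviation: GI50, concentration required for 50% inhibition of growth. TGI denotes the concentration required for complete inhibition of growth.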

Columns and labels:
Experiment in all cases: NCI-60 cell line screen, 48 h
[1] = system: SN12C renal
[2] = system: SW-620 colon
[3] = system: SK-MEL-28 melanoma
[4] = system: DU-145 prostate
[5] = system: ACHN renal
[6] = system: NCI-H23 lung
[7] = system: TK-10 renal
[8] = system: HOP-92 NSCLC
[9] = system: HS 578T breast
[10] = system: HT29 colon

Compound | GI50 [1] | TGI [1] [µM] | GI50 [2] | TGI [2] [µM] | GI50 [3] [µM] | TGI [3] [µM] | GI50 [4] | TGI [4] [µM] | GI50 [5] | TGI [5] [µM] | GI50 [6] | TGI [6] | GI50 [7] [µM] | TGI [7] [µM] | GI50 [8] [µM] | TGI [8] [µM] | GI50 [9] | TGI [9] [µM] | GI50 [10] | TGI [10]
Nc1nccc(-c2c(-c3ccc(F)cc3)nn3cc(C(F)(F)F)ccc23)n1 | > 25 µM | > 25 | > 25 µM | > 25 | > 25 | > 25 | > 25 µM | > 25 | > 25 µM | > 25 | > 25 µM | > 25 µM | > 25 | > 25 | 5.75 | > 25 | > 25 µM | > 25 | > 25 µM | > 25 µM
CCSCC1CC(O)(c2ccccc2)C(c2ccccc2)C(c2ccc(F)cc2)O1 (stereo unspecified) | 1.89 µM | 5.25 | 1.81 µM | 4.32 | 1.74 | 3.4 | 2.75 µM | 6.99 | 2.22 µM | 5.54 | 2.01 µM | 4.87 µM | 2.6 | 7.28 | 1.23 | 3.15 | 1.83 µM | 4.88 | 1.95 µM | 6.21 µM
CN1CCN(c2c(F)cc(NC3=C(Cl)C(=O)c4ncccc4C3=O)cc2F)CC1 | 3.22 µM | 13.2 | 1.76 µM | 3.82 | 6.47 | 19 | 12.7 µM | 26.2 | 1.61 µM | 2.96 | 11.8 µM | 32 µM | 1.93 | 3.67 | 1.55 | 3.22 | 11.2 µM | 56.4 | 4.67 µM | 22.5 µM
CC(C)[C@@H]1CC[C@]2(CO2)[C@@H]2C(=O)OCC(C(=O)O)=C[C@H]21 | 0.32 µM | > 20.1 | 0.334 µM | > 100 | 0.207 | 0.424 | 0.471 µM | > 100 | 0.43 µM | > 100 | 1.35 µM | 8.41 µM | 0.686 | > 93.5 | 0.235 | 0.79 | 0.288 µM | 2.3 | 0.352 µM | > 33.9 µM
ClCCOCCn1cnc2c(Cl)nc(Cl)nc21 | 16.2 µM | 31.8 | 6.36 µM | 20.3 | 7.09 | 20.1 | 10.2 µM | 21.9 | 14.4 µM | 27.5 | 12.8 µM | 29.1 µM | 18.5 | 60.6 | 18.9 | 45.5 | 2.51 µM | 9.05 | 19.6 µM | 73.6 µM
COC12C(COC(=O)NCCO)C3=C(C(=O)C(C)=C(N)C3=O)N1CC1NC12 (stereo unspecified) | 34.4 µM | > 264 | 26.7 µM | 110 | – | > 264 | – | 236 | 13.3 µM | 142 | 10.3 µM | 22.7 µM and 51.3 µM | 66.8 | > 264 | 76.3 | 222 | – | > 264 | 52.7 µM | > 264 µM
C#Cc1ccc(-n2c(/C=C/c3ccc(O)cc3)nc3ncccc3c2=O)cc1 | 5.16 µM | > 100 | 3.55 µM | > 100 | 5.97 | > 100 | 4.1 µM | 76.5 | 6.31 µM | > 100 | 5.52 µM | > 100 µM | 8.78 | 68.7 | 1.8 | 17.1 | 3.24 µM | 30 | 52.8 µM | > 100 µM
CC(=O)Oc1ccc(C2=Cc3ccc(OC(C)=O)cc3OC2C)cc1 (stereo unspecified) | 7.08 µM | > 100 | 6.33 µM | 29.8 | 10.3 | 43.4 | 3.27 µM | 13.9 | 2.29 µM | > 100 | 5.3 µM | > 100 µM | 20 | > 100 | 6.74 | > 100 | 2.75 µM | 7.81 | 20.7 µM | > 100 µM
CC(=O)NC1C(O[C@H]2C[C@H]3[C@@H]4CC=C5C[C@@H](O)CC[C@]5(C)[C@H]4CC[C@]3(C)[C@H]2[C@H](C)C(=O)CCC(C)C)OCC(O)C1O (stereo partly specified) | 8.58 µM | 26.6 | 3.21 µM | 9.78 | 0.928 | 2.78 | 5.89 µM | > 42.5 | 3.75 µM | > 42.5 | 4.59 µM | 18.5 µM | 13.9 | > 42.5 | 5.1 | 15.5 | 0.88 µM | 4.09 | 5.29 µM | 15.3 µM
COc1ccc(-c2[nH]c3ccc(OC)cc3c2C=C(C#N)C#N)cc1 | 15.9 µM | > 100 | 0.568 µM | > 100 | 1.66 | > 100 | 0.752 µM | > 100 | > 100 µM | > 100 | 1.25 µM | > 100 µM | > 100 | > 100 | > 47.9 | > 100 | 0.924 µM | > 100 | 0.404 µM | > 100 µM
CCCCCCCCCCCCCCNC(=O)Nc1ccc(Cl)c(Cl)c1 | 2.85 µM | > 100 | 3.18 µM | > 100 | 3.7 | > 100 | 3.59 µM | > 100 | 3.17 µM | > 100 | 2.86 µM | 26.3 µM | 2.34 | 7.4 | 2.75 | 8.65 | 3.14 µM | 15 | 3.27 µM | > 100 µM
Fc1ccc(NC(c2ccc(F)cc2)C2CCN(CCCCc3ccccc3)CC2)cc1 (stereo unspecified) | 1.77 µM | 3.37 | 1.26 µM | 2.57 | 1.76 | 3.28 | 1.77 µM | 3.86 | 1.68 µM | 3.05 | 1.78 µM | 3.86 µM | 2.07 | 5.34 | 1.31 | 3.41 | 1.7 µM | 3.9 | 1.4 µM | 3.03 µM
CCO/C=C1\SC(=S)N(c2ccc(OCC)cc2)C1=O | – | > 100 | – | > 100 | – | > 100 | – | > 100 | – | > 100 | – | > 100 µM | – | > 100 | – | > 100 | – | > 100 | – | > 100 µM
S=C1SCN(Cc2ccccc2)CN1Cc1ccco1 | 4.06 µM | 15.3 | 4.52 µM | 18.1 | 5.75 | 20.1 | 2.85 µM | 9.61 | 4.97 µM | 17.3 | 5.21 µM | 34.9 µM | 5.79 | 18.8 | 2.4 | 10.9 | 19.7 µM | 81.5 | 3.17 µM | 13.9 µM
COc1ccc(/C=C2\CCC/C(=C\c3ccc(OC)c(OC)c3)C2=O)cc1OC | 8.79 µM | > 32.5 | 1.49 µM | 24.1 | 16.7 | > 32.5 | 1.28 µM | 9.89 | 5.04 µM | > 32.5 | 2.91 µM | > 32.5 µM | 1.4 | 7.33 | 11.3 | > 32.5 | 7.95 µM | > 32.5 | 1.34 µM | > 32.5 µM
CCN(CC)c1ccc2nc3ccc(=[N+](CC)CC)cc-3oc2c1 | 0.153 µM | 15.2 | 0.0449 µM | > 100 | 1.5 | 27.7 | 0.522 µM | 20.9 | 1.56 µM | 59.8 | 0.097 µM | 1.27 µM | 0.474 | 3.57 | 1.31 | 5.14 | 1.37 µM | 5.94 | 0.182 µM | 2.67 µM
Cc1noc(NC(=O)Nc2ccccc2F)c1C#N | – | > 48 | – | > 100 | – | > 100 | – | > 100 | – | > 46.7 | – | > 100 µM | – | > 45.1 | – | > 100 | – | > 56.4 | – | > 37.7 µM
C=CCN(CC=C)C(=O)c1cc(C)nc2c1c(=O)n(-c1ccccc1)c(=O)n2CCCN1CCN(c2ccccc2OC)CC1 | > 50 µM | > 50 | > 50 µM | > 50 | > 50 | > 50 | > 50 µM | > 50 | > 50 µM | > 50 | > 50 µM | > 50 µM | > 50 | > 50 | 4.57 | > 50 | > 50 µM | > 50 | > 50 µM | > 50 µM
C=C(CN1CCc2[nH]c3ccc(F)cc3c2C1)c1ccc(C(=O)Nc2ccccc2N)cc1 | 3.82 µM | 14 | 0.715 µM | 15.6 | 3.54 | 26.2 | 1.66 µM | 3.94 | 3.33 µM | 11.4 | 2.22 µM | 12.6 µM | 2.58 | 16.2 | 10.7 | 36.7 | 1.07 µM | 14.1 | 1.8 µM | 31.6 µM
CSc1nc2nc(-c3ccccc3)c(C)c-2c2n1C(C)C(=O)N2 (stereo unspecified) | 52.6 µM | > 100 | 58.8 µM | > 100 | 43.4 | > 100 | 51.9 µM | > 100 | 38.1 µM | > 100 | – | – | 38.1 | > 100 | 40.8 | > 100 | 77.5 µM | > 100 | 33.7 µM | > 100 µM
COCCN(Cc1ccc(F)cc1)c1ccc(CO)c(Cl)c1 | 24.9 µM | > 100 | 7.29 µM | > 100 | 31.3 | > 100 | 70.4 µM | > 100 | 39.9 µM | > 100 | 17.2 µM | > 100 µM | 0.271 | 1.66 | 8.16 | 60.1 | 60.9 µM | > 100 | 22.4 µM | > 100 µM
OCCCCC#Cc1ccccc1C#Cc1cccc(C(F)(F)F)c1 | 18.9 µM | 33 | 16.9 µM | 37 | 12 | 25 | 15.3 µM | 29.9 | 18.3 µM | 32.4 | 16.4 µM | 31.5 µM | 16.9 | 32.2 | 19.9 | 36.2 | 29.7 µM | 71.3 | 10.5 µM | 23.4 µM
CC[C@H](C)[C@H](NC(=O)[C@H]1CCCCN1C)C(=O)N(C)[C@H](C[C@@H](OC(C)=O)c1nc(C(=O)NC23CC(C(=O)OC)(C2)C3)cs1)C(C)C | 0.000654 µM and 0.00325 µM | > 32.5 | 0.000424 µM and 0.00325 µM | > 32.5 | – | > 32.5 | 0.000449 µM and 0.00325 µM | > 32.5 | 0.00806 µM and 0.00325 µM | > 32.5 | 0.00511 µM and 0.00325 µM | > 32.5 µM | 0.0458 | – | 0.000734 | – | 0.000388 µM and 0.00325 µM | > 32.5 | 0.000433 µM and 0.00325 µM | 0.0103 µM and 0.011 µM
COc1ccc(-c2nc3ccc(Cc4ccc5nc(-c6ccc(OC)cc6)[nH]c5c4)cc3[nH]2)cc1 | 0.165 µM | 2.29 | < 0.0151 µM | 0.173 | 0.252 | 2.49 | 0.0385 µM | 0.154 | 0.101 µM | 1.96 | 0.0516 µM | 2.81 µM | 1.1 | 2.32 | 0.394 | 2.26 | 0.0334 µM | 2.52 | < 0.01 µM | 0.11 µM
CN(C)c1ccc(-c2cc(-c3ccc(Nc4nc(Nc5ccc(Cl)cc5)nc(Nc5ccc(Cl)cc5)n4)cc3)nc(N)c2C#N)cc1 | 13.8 µM | > 100 | 5.6 µM | 22.7 | 2.05 | 6.35 | 34.6 µM | > 100 | 13.1 µM | > 100 | 30.5 µM | > 100 µM | 53.8 | > 100 | – | 2.93 | 3.94 µM | 59.3 | 8.85 µM | > 100 µM
